Laboratory results reported in article PMC2063833 (The Journal of Cell Biology, 2006).

Target: T1, Ssy1p (Saccharomyces cerevisiae, UniProt Q03770)
T1 sequence (Q03770 1-852): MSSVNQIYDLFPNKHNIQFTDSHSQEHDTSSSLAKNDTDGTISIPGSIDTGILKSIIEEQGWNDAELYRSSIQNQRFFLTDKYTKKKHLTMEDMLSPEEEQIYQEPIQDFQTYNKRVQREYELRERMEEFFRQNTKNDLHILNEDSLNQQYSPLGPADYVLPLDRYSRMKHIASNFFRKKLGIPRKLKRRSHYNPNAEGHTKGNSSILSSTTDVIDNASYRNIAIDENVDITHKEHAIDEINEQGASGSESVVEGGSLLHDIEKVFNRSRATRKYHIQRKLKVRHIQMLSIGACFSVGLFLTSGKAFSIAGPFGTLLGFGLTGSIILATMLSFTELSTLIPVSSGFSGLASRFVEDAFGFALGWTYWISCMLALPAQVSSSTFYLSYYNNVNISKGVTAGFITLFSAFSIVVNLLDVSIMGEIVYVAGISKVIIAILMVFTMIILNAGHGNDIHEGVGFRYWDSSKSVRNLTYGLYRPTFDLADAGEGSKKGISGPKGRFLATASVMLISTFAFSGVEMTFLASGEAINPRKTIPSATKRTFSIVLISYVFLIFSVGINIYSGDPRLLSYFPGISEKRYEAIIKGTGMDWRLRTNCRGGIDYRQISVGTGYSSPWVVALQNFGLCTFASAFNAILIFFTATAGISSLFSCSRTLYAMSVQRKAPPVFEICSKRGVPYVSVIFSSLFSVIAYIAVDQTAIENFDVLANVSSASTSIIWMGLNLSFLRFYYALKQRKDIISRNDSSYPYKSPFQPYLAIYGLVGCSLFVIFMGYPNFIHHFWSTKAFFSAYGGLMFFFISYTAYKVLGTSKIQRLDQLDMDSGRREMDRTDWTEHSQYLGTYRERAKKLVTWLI
Test: Ssy1p signaling measured as Stp1p processing
Type: cell-based
Conditions: for EC50: EC50 for sensing of extracellular amino acid, grown in SD

Compound	EC50 (experiment 1, strain M5447 (ura3 gap1Δ), Leuc 0.5 μmol/g DW, mean of triplicate) [µM]	EC50 (experiment 5, strain M5568 (ura3 gap1Δ bap2Δ tat1Δ bap3Δ agp1::URA3), Leuc 1 μmol/g DW) [µM]	EC50 (experiment 9, strain M5446 (ura3 gap1Δ LEU4-fbr), Leuc 12 μmol/g DW) [µM]	Effect on EC50 of adding isoamyl alcohol (isoamyl alcohol at relevant concentrations, unpublished data)
CC(C)C[C@H](N)C(=O)O [Leu, leucine]	13	15	30	
CC(C)CCO [isoamyl alcohol]				no significant effect
